Source: paper PMC13168289, “Potent acridone antimalarial against all three life stages of Plasmodium” (Nature Communications, 2026)
Several values for one entry are separate records, joined by “and”; a condition that tells them apart may be missing. Equal values may be shown once. Read-outs that look alike come from different tables or passages of the source.

Legend:
[1] = system: fresh P. falciparum isolates; assay: Ex vivo 72-h growth inhibition assay with SYBR Green detection; format: cell-based, Plasmodium falciparum
Experimental: Isolates were collected from patients with uncomplicated falciparum malaria in Bobo-Dioulasso, Burkina Faso and Tororo, Uganda. For parasite culture, parasitemia was identified with Giemsa-stained thin films using a light microscope. […] Isolates were stored at 4 °C and assayed within 24 h of collection. […] Study compounds were dissolved in DMSO as 10 mM stocks and stored at -20 °C. Drugs were serially diluted, including drug-free and parasite-free control wells, with concentrations optimized to capture full dose-response curves. Cultures were diluted with uninfected O^+ erythrocytes to achieve 0.2% parasitemia and 2% hematocrit. After 72 h, wells were resuspended, and culture from each well was transferred to 96-well plates containing SYBR Green lysis buffer and mixed. Plates were incubated for 1 h in the dark at room temperature, and fluorescence was measured with a plate reader (485 nm excitation and 530 nm emission).

[2] = in vivo pharmacokinetics, single oral dose; parameters: species or system ICR-CD1 mice; details: 40 mg/kg oral
Experimental: PK studies were conducted using well-established methods[21],[31],[50]. Four to five weeks old male and female outbred ICR-CD1 mice (Charles River Laboratories. Inc. Raleigh, NC) weighing 23–35 g were used for PK studies. Animals were assigned unique study numbers via ear tags and cage cards and were randomly assigned to treatment or control groups (n = 3 per group) using a weigh-stratified randomization procedure. All animals were quarantined and acclimatized for 7 days prior to study initiation and were housed in a 12:12 light/dark cycle with food and water provided ad libitum. […] At each time point, a terminal whole blood sample was collected by cardiac puncture using heparinized syringes (Heparin, Hospira, Lake Forest, IL), while mice were under anesthesia in accordance with the approved IACUC protocol. Following the separation of appropriate aliquots, plasma was obtained from the whole blood via centrifugation at 16,200 rpm for 10 min at 4 °C. Mice were humanely euthanized as described in the protocol, after which the liver samples were also collected and weighed at each experimental time point. All tissue samples were immediately preserved on dry ice and later stored at −80 °C until analytical work was performed. Drug concentrations were determined for each sample taken from animals dosed with the test compound. PK parameters such as time to maximum plasma concentration (Tmax), maximum plasma concentration (Cmax), the apparent elimination half-life (t1/2), area under the curve (AUC), etc., were obtained using noncompartmental analysis via the Phoenix WinNonlin software package (version 6.4; Pharsight Corp., Mountain View, CA).

[3] = system: P. falciparum NF54 gametocytes; assay: sexual blood-stage gametocyte assay; format: cell-based, Plasmodium falciparum; details: Days 5 to 7, read Day 14
Experimental: P. falciparum NF54 was used to generate gametocytes. The erythrocytic stage of the parasite was cultured following standard laboratory protocols. Gametocyte production was carried out as described by Miura et al[34]. […] Cultures were maintained in washed human O^+ red blood cells at a final hematocrit of 2%[76]. For gametocyte cultures, parasites were induced using serum-free human media. Gametocyte cultures were maintained in washed human O^+ red blood cells at a final hematocrit of 5%. […] All cultures were maintained at 37 °C in a Billups chamber under a gas mixture of 90% N2, 5% CO2, and 5% O2, with media changes daily. […] DMSO diluted in gametocyte media was used as the control. […] Gametocytemia was assessed on Day 14 post-induction using blood smears stained with the Hema 3^TM Manual Staining System (Fisher) and analyzed by light microscopy.

blood-stage P. yoelii = assay: single-dose cure murine model, oral; format: in vivo, P. yoelii in CF1 mice
Text: Animals were housed at the VAPORHCS in Thoren Maxi-Miser microisolator cages (78 sq. in. floor space) with a maximum density of five females or four males per cage. Cages were maintained on a 12-h light/dark cycle and provided with autoclaved nesting materials (nestlets) for environmental enrichment. All mice had ad libitum access to food and water. Four- to five-week-old female and male outbred CF1 mice (Charles River Laboratories, Raleigh, NC, USA) were randomly assigned to treatment and control groups using a simple randomization procedure (e.g., computer-generated random numbers) to ensure balanced distribution of baseline body weights and starting parasitemia levels across all cohorts. Groups of four mice (n = 4, mean body weight of each group was ~30 g) were infected intravenously with 3.5 × 10^4 P. yoelii (Kenya strain, MRA-428) from a donor animal. Drug administration commenced the day after the animals were inoculated (Day 1). The test drug or the drug combination was dissolved in PEG-400 and administered by oral gavage once daily for 4 successive days in the 4-day suppression model, but only once on Day 1 in the single-dose cure model. Blood was collected via the tail vein with the aid of a syringe needle on Day 5 and then at weekly intervals through Day 28. Blood films were Giemsa-stained and examined microscopically to determine the level of parasitemia. All mice were observed daily to assess clinical signs. Animals with observable parasitemia following the experiments were euthanized; animals cleared of parasitemia from their bloodstream were observed daily with assessment of parasitemia performed weekly until Day 28, at which point, the animal(s) were scored as cured of the infection and then humanely euthanized. All treated mice with a negative smear on Day 28 were considered cured (100% protection). […]

O=c1c2ccc(Oc3ccc(OC(F)(F)F)cc3)cc2[nH]c2cc(Cl)cc(F)c12 [T111]
IC50 ([1]; Burkina Faso isolates, n = 78, read-out: IC50 range): 0.0013 to 0.49 nM | IC50 ([1]; Burkina Faso isolates, n = 78, read-out: median IC50): 0.062 nM | IC50 ([1]; Uganda isolates, n = 81, read-out: IC50 range): 0.0038 to 0.66 nM | IC50 ([1]; Uganda isolates, n = 81, read-out: median IC50): 0.049 nM | AUCinf ([2]; female, liver): 23,495 ng.h/mL | AUClast ([2]; female, liver): 23,384 ng.h/mL | Cmax ([2]; female, liver): 1503 ng/mL | Tmax ([2]; female, liver): 8.0 h | AUCinf ([2]; female, plasma): 185 ng·h/mL | AUClast ([2]; female, plasma): 169 ng·h/mL | Cmax ([2]; female, plasma): 11.3 ng/mL | Tmax ([2]; female, plasma): 4.0 h | AUCinf ([2]; male, liver): 26,044 ng.h/mL | AUClast ([2]; male, liver): 25,969 ng.h/mL | Cmax ([2]; male, liver): 1704 ng/mL | Tmax ([2]; male, liver): 1.0 h | AUCinf ([2]; male, plasma): 180 ng·h/mL | AUClast ([2]; male, plasma): 156 ng·h/mL | Cmax ([2]; male, plasma): 6.8 ng/mL | Tmax ([2]; male, plasma): 4.0 h | inhibition of formation of stage V gametocytes ([3]; 1 µM): 75% | inhibition of formation of stage V gametocytes ([3]; 10 µM): 93% | % survival through Day 28 (blood-stage P. yoelii; TQ 0 + T111 20 mg/kg): 0% | number of mice cured on Day 28 (blood-stage P. yoelii; TQ 0 + T111 20 mg/kg): 0/4 | parasitemia burden on Day 5 (blood-stage P. yoelii; TQ 0 + T111 20 mg/kg): 0 | % survival through Day 28 (blood-stage P. yoelii; TQ 0 + T111 30 mg/kg): 0% | number of mice cured on Day 28 (blood-stage P. yoelii; TQ 0 + T111 30 mg/kg): 0/4 | parasitemia burden on Day 5 (blood-stage P. yoelii; TQ 0 + T111 30 mg/kg): 0 | % survival through Day 28 (blood-stage P. yoelii; TQ 0 + T111 40 mg/kg): 25% | parasitemia burden on Day 5 (blood-stage P. yoelii; TQ 0 + T111 40 mg/kg): 0 | number of mice cured on Day 28 (blood-stage P. yoelii; TQ 0 + T111 40 mg/kg, 40 mg/kg): One of four mice and 1/4 | % survival through Day 28 (blood-stage P. yoelii; TQ 0 + T111 50 mg/kg): 100% | parasitemia burden on Day 5 (blood-stage P. yoelii; TQ 0 + T111 50 mg/kg): 0 | number of mice cured on Day 28 (blood-stage P. yoelii; TQ 0 + T111 50 mg/kg, 50 mg/kg): all of four mice and single-dose cure in all treated mice and 4/4
